Experimental data reported in US20100273835A1, “NOVEL COMPOUNDS” (PROBIODRUG AG, priority 2007, published 2010).
pIC50, pKi: −log10 of the molar value.

How the values were obtained:
[1] = biological target: T1, Recombinant human prolyl oligopeptidase (Homo sapiens, UniProt P48147); assay: Determination of IC50- and Ki-values of PEP-inhibitors, chromogenic substrate Cbz-Gly-L-Pro-pNA; type: biochemical; details: for pKi: 4 substrate and 7 inhibitor concentrations, competitive inhibition, pH 7.6, 30° C.; for pIC50 / IC50 PEP (M): substrate 0.15 mM, HEPES buffer pH 7.6, 30° C., n.i. means no inhibition
T1 construct: made in house; host or cells: E. coli
T1 sequence (P48147 1-710): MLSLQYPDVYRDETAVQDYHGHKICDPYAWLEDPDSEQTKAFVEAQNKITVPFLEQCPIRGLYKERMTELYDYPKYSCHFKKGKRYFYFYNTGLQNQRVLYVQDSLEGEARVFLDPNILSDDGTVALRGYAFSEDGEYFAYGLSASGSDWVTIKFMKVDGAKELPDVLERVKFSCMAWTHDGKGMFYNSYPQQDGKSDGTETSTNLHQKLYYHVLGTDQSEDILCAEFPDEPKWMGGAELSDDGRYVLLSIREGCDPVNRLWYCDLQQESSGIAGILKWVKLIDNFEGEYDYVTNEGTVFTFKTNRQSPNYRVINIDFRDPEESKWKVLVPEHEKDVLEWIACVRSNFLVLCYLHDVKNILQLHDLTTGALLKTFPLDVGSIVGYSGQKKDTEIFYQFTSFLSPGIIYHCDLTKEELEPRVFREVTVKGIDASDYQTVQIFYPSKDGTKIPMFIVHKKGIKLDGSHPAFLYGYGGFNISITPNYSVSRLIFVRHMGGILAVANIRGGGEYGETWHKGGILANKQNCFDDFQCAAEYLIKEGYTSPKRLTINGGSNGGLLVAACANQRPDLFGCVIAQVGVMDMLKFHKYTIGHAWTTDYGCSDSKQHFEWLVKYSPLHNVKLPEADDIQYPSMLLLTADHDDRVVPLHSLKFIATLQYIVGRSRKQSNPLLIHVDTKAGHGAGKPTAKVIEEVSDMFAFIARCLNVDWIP
Procedure: Recombinant human prolyl oligopeptidase was used for measurement. Recombinant expression was performed in E. coli under standard conditions as described elsewhere in the state of the art.
For activity measurements the chromogenic substrate Cbz-Gly-L-Pro-pNA was used in HEPES buffer pH 7.6 containing 50 mM HEPES, 200 mM NaCl, 1 mM EDTA, 1 mM DTT, 0.006% Brij35. Measurements were carried out at 30° C. Release of pNA were monitored continuously at 405 nm.
IC50 values were calculated using non-linear regression to a 4-parameter equation (Prism 4.0, GraphPad).
For Ki determination 4 substrate (0.15 mM, 0.08 mM 0.04 mM, 0.02 mM) and 7 inhibitor concentrations in an appropriate range were used. Calculations were performed by multiple non-linear regression analysis to the equation for competitive inhibition using GraFit 5.0 Software (Erithacus Software).

[2] = system: basal secretion of IL-6, human glial U-343 cells; assay: IL-6 ELISA, basal secretion of IL-6 into conditioned medium; type: cell-based; details: inhibitor 20 μM, 24 hours, serum-free medium, untreated = 100%, read-out: Extracellular IL-6 concentration, % of untreated cells
Procedure: To analyze basal secretion of IL-6, human glial U-343 cells were cultured in 6 well plates (1.5×10^6 cells/well, Greiner) and treated with specific PEP inhibitors as indicated (20 μM each) for 24 hours in serum-free D-MEM medium (Invitrogen). Aliquots of 40 μl conditioned medium were used to quantify the amount of secreted IL-6 by an human-specific IL-6 ELISA (Biosource) following the manufacturer's instructions. All data were obtained in quadruplicate. For the calculation of the IL-6 concentration in the cell culture medium after PEP-inhibitor treatment, the basal IL-6 concentration of the cell culture medium of untreated cell samples was set to 100%. The results of the measurement of the IL-6 concentration with PEP-inhibitor treated cells are presented as % of the untreated cell samples.
(§1) The human glioma cell line, U-343 and the human neuroblastoma cell line, SH-SY5Y were maintained in Dulbecco's modified Eagle's medium (DMEM) containing 10% fetal bovine serum (Gibco BRL, Karlsruhe, Germany) and incubated at 37° C. in a 5% CO2 atmosphere. Culture media contained in general 60 μg/ml gentamycin (Gibco BRL, Karlsruhe, Germany).

[3] = system: beta-amyloid peptides 1-40 and 1-42, U-343 and SH-SY5Y cells; assay: Beta-amyloid ELISA, secreted beta-amyloid peptides in conditioned medium; type: cell-based; details: Homo sapiens; inhibitor 20 μM, 24 hours; untreated = 100%; FIG. 2: Abeta 1-42, SH-SY5Y cells; read-out: Extracellular Abeta-concentration % of control
Procedure: as §1
To quantify intracellular and extracellular concentrations of beta-amyloid peptides, 1-40 and 1-42, U-343 and SH-SY5Y cells were cultured in 6 well plates (1.5×10^6 cells/well) and treated with specific PEP inhibitors (20 μM each) for 24 hours. For quantitation of secreted beta-amyloid peptides the conditioned medium was collected and concentrated by lyophylisation. Likewise, after determination of the cell numbers/well (casy cell counter I, Schärfe System, Reutlingen, Germany), cells were lyzed with cell extraction buffer (Biosource, Solingen, Germany) according to the manufacturer's protocol. The protein concentration was determined by the method of Bradford (1976). Aliquots of 100 μl were used to quantify beta-amyloid peptides 1-40 and 1-42 in quadruplicate by ELISA (IBL, Hamburg, Germany) following the manufacturer's instructions. All obtained intracellular and extracellular concentrations were normalized to cell numbers and protein concentration, respectively.
For the calculation of the concentration of beta-amyloid peptides 1-40 and 1-42 in the cell culture medium after PEP-inhibitor treatment, the basal concentration of beta-amyloid peptides 1-40 and 1-42 in the cell culture medium of untreated cell samples was set to 100%. The results of the measurement of the concentration of beta-amyloid peptides 1-40 and 1-42 with PEP-inhibitor treated cells are presented as % of the untreated cell samples.

SMILES	pKi [1]	pIC50 [1]	IC50 PEP (M) [1]	activity at 20 µM [2] [%]	activity at 20 µM [3] [%]
O=C(c1nc2ccccc2s1)[C@@H]1CCCN1C(=O)OCc1ccccc1 [Example 1, 2-[Cbz-L-Pro]Benzothiazole]	6.01	5.15	–	40	155
O=C(N[C@@H](Cc1ccccc1)C(=O)c1nc2ccccc2s1)OCc1ccccc1 [Example 2, 2-[Cbz-L-Phe]Benzothiazole]	–	< 4.00	–	44	295
O=C(N[C@@H](Cc1ccccc1)C(=O)c1cccs1)OCc1ccccc1 [Example 3, 2-[Cbz-L-Phe]Thiophene]	–	6.00	–	23	339
O=C(N[C@H](Cc1ccccc1)C(=O)c1nccs1)OCc1ccccc1 [Example 4, 2-[Cbz-D-Phe]Thiazole]	–	–	n.i.	44	172
O=C(N[C@@H](Cc1ccccc1)C(=O)c1nccs1)OCc1ccccc1 [Example 5, 2-[Cbz-L-Phe]Thiazole]	8.94	8.92	–	29	193
C[C@H](NC(=O)OCc1ccccc1)C(=O)c1nc2ccccc2s1 [Example 6, 2-[Cbz-L-Ala]Benzothiazole]	–	5.35	–	36	114
O=C(N[C@@H](Cc1ccccc1)C(=O)c1ccccn1)OCc1ccccc1 [Example 7, 2-[Cbz-L-Phe]Pyridine]	–	4.41	–	31	236
O=C(N[C@@H](Cc1ccccc1)C(=O)c1cc2ccccc2s1)OCc1ccccc1 [Example 8, 2-[Cbz-L-Phe]Benzo[b]thiophene]	–	–	n.i.	27	310
O=C(N[C@@H](Cc1ccccc1)C(=O)c1ccccc1)OCc1ccccc1 [Example 9, Cbz-L-Phe-Benzene]	5.80	5.28	–	18	330
C[C@H](NC(=O)OCc1ccccc1)C(=O)c1nccs1 [Example 10, 2-[Cbz-L-Ala]Thiazole]	5.64	5.15	–	78	107
CC(C)(C)OC(=O)N[C@@H](Cc1ccc([N+](=O)[O-])cc1)C(=O)c1nccs1 [Example 11, 2-[Boc-L-(p-NO2)Phe]Thiazole]	–	4.60	–	62	178
C=CCOC(=O)N[C@@H](Cc1ccccc1)C(=O)c1nccs1 [Example 14, 2-[Aloc-L-Phe]Thiazole]	–	–	–	67	115
CC(C)C[C@H](NC(=O)OC(C)(C)C)C(=O)c1nc2ccccc2s1 [Example 20, 2-[Boc-L-Leu]Benzothiazole]	–	–	–	63	375
CC(C)(C)OC(=O)N1CCC[C@H]1C(=O)c1nc2ccccc2s1 [Example 24, 2-[Boc-L-Pro]Benzothiazole]	–	–	–	26	136

Second part, led by results:

pKi [1]	pIC50 [1]	IC50 PEP (M) [1]	SMILES	activity at 20 µM [2] [%]	activity at 20 µM [3] [%]
–	4.85	–	CC(C)(C)OC(=O)N[C@@H](Cc1ccc([N+](=O)[O-])cc1)C(=O)c1ccco1 [Example 12, 2-[Boc-L-(p-NO2)Phe]Furan]	37	166
–	–	n.i.	C=CCOC(=O)N[C@@H](Cc1ccccc1)C(=O)c1nc2ccccc2s1 [Example 13, 2-[Aloc-L-Phe]Benzothiazole]	69	106
–	5.00	–	C=CCOC(=O)N[C@@H](Cc1ccccc1)C(=O)c1ccco1 [Example 15, 2-[Aloc-L-Phe]Furan]	78	116
–	4.40	–	CC(C)(C)OC(=O)N[C@@H](Cc1c[nH]c2ccccc12)C(=O)c1nc2ccccc2s1 [Example 16, 2-[Boc-L-Trp]Benzothiazole]	23	177
–	4.03	–	CC(C)(C)OC(=O)N[C@@H](Cc1c[nH]c2ccccc12)C(=O)c1nccs1 [Example 17, 2-[Boc-L-Trp]Thiazole]	38	143
–	4.85	–	CC(C)(C)OC(=O)N[C@@H](Cc1c[nH]c2ccccc12)C(=O)c1ccco1 [Example 18, 2-[Boc-L-Trp]Furan]	24	163
–	–	n.i.	O=C(/C=C/c1ccccc1)N[C@@H](Cc1ccccc1)C(=O)c1nccs1 [Example 19, 2-[Cinnamoyl-L-Phe]Thiazole]	58	230
–	–	n.i.	CC(C)(C)OC(=O)N[C@@H](Cc1ccc([N+](=O)[O-])cc1)C(=O)c1nc2ccccc2s1 [Example 21, 2-[Boc-L-(p-NO2)Phe]Benzothiazole]	96	311
–	–	n.i.	CC(C)(C)OC(=O)N[C@@H](Cc1ccc(I)cc1)C(=O)c1ccco1 [Example 22, 2-[Boc-L-(p-Iodo)Phe]Furan]	50	232
–	–	n.i.	CC(C)(C)OC(=O)N[C@@H](Cc1ccc(I)cc1)C(=O)c1nccs1 [Example 23, 2-[Boc-L-(p-Iodo)Phe]Thiazole]	41	210
5.64	5.14	–	CC(C)(C)OC(=O)N1CCC[C@H]1C(=O)c1nccs1 [Example 25, 2-[Boc-L-Pro]Thiazole]	59	111
4.28	4.11	–	CC(C)(C)OC(=O)N[C@@H](Cc1ccccc1)C(=O)c1nccs1 [Example 26, 2-[Boc-L-Phe]Thiazole]	66	168
